Consider one compound from patent publication US20080119412A1, “Polypeptides for Modulating Binding of Trp Channel Proteins and Trp- Associated Proteins” (NoNO Inc., priority 2003, published 2008).

Experiment in all cases: G3 assay titration, GST-PDZ fusion / biotinylated peptide
Common to all, as to type: binding

One experiment addresses T1, SITAC-18 d2 (Homo sapiens, UniProt Q9H190).
T1 construct: made in house; host or cells: E. coli (DH5alpha, BL21 or JM109)
T1 sequence (Q9H190 with tags, fused parts or gaps): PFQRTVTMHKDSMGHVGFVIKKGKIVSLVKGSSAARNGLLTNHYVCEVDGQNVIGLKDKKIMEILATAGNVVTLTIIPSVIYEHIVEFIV

The target in another experiment is T2, Syntrophin 1 alpha d1 (Homo sapiens, UniProt Q13424).
T2 construct: made in house; host or cells: E. coli (DH5alpha, BL21 or JM109)
T2 sequence (Q13424 84-177): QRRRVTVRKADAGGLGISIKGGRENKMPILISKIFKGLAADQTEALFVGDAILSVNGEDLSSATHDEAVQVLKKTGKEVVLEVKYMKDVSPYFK

In another experiment the target is T3, RIM2 d1 (Homo sapiens, UniProt Q9UQ26).
T3 construct: made in house; host or cells: E. coli (DH5alpha, BL21 or JM109)
T3 sequence (Q9UQ26 632-757): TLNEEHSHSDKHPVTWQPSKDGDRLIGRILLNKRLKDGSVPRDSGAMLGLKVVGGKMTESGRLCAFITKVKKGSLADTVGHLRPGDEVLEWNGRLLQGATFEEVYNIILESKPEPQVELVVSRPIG

In another experiment the target is T4, INADL d3 (Homo sapiens, UniProt Q8NI35).
T4 construct: made in house; host or cells: E. coli (DH5alpha, BL21 or JM109)
T4 sequence (Q8NI35 with tags, fused parts or gaps): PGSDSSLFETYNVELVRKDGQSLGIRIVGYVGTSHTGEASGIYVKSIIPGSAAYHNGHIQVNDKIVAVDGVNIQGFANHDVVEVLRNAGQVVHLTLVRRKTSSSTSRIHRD
The method in brief: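 ELISA with anti-GST-captured GST-PDZ fusions (5 μg/ml), probed by biotinylated Tat-TRPM7 C-terminal peptide precomplexed 20 min with HRP-streptavidin. Binding ran 30 min at room temperature; TMB read at 450 nm. Peptide was titrated from 0.002 to 2 μM and data fitted to a binding equation.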

A further experiment addresses T5, PAR3 d3 (Homo sapiens, UniProt Q8TEW0, R682S).
T5 construct: made in house; host or cells: E. coli (DH5alpha, BL21 or JM109)

The next experiment addresses T6, PAR3L d3 (Homo sapiens, UniProt Q8TEW8).
T6 construct: made in house; host or cells: E. coli (DH5alpha, BL21 or JM109)

The next experiment deals with T7, Mint 1 (d1, d2) (Homo sapiens, UniProt Q02410, K730E).
T7 construct: made in house; host or cells: E. coli (DH5alpha, BL21 or JM109)
T7 sequence (Q02410 651-828 K730E): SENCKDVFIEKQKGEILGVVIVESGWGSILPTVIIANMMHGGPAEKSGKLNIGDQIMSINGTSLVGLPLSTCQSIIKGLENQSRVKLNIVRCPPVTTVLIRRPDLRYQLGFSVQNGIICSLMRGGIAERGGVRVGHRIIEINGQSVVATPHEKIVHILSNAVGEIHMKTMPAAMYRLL

For a further experiment, the target named is T8, LIM Mystique d1 (Homo sapiens, UniProt Q96JY6).
T8 construct: made in house; host or cells: E. coli (DH5alpha, BL21 or JM109)
T8 sequence (Q96JY6 1-91): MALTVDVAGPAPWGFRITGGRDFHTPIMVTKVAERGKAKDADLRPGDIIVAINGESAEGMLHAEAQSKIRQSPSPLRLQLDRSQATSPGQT

pEC50: −log10 of the molar value. Residues, ends and D or L forms follow the SMILES beside them. *: point of attachment. Biotin = O=C1N[C@H]2[C@H](CS[C@H]2CCCCC(=O)*)N1

T6 sequence (Q8TEW8 with tags, fused parts or gaps): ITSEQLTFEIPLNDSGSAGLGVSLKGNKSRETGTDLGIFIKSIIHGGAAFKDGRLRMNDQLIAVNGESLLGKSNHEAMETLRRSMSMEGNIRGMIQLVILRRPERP
T5 sequence (Q8TEW0 with tags, fused parts or gaps R682S): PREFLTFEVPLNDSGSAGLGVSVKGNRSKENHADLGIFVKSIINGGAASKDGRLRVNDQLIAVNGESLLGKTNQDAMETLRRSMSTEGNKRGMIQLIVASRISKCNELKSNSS

For the compound `CSCC[C@H](NC(=O)[C@H](CC(C)C)NC(=O)[C@H](CCCNC(=N)N)NC(=O)[C@@H](NC(=O)[C@H](CO)NC(=O)[C@H](CC(N)=O)NC(=O)[C@@H](NC(=O)[C@H](CO)NC(=O)[C@H](CCCNC(=N)N)NC(=O)[C@H](CCCNC(=N)N)NC(=O)[C@H](CCCNC(=N)N)NC(=O)[C@H](CCC(N)=O)NC(=O)[C@H](CCCNC(=N)N)NC(=O)[C@H](CCCNC(=N)N)NC(=O)[C@H](CCCCN)NC(=O)[C@H](CCCCN)NC(=O)[C@H](CCCNC(=N)N)NC(=O)CNC(=O)[C@H](Cc1ccc(O)cc1)NC(=O)CCCC[C@@H]1SC[C@@H]2NC(=O)N[C@@H]21)[C@@H](C)O)C(C)C)C(=O)N[C@@H](CC(C)C)C(=O)O` [Tat-TRPM7 peptide] (Biotin-YGRKKRRQRRRSTNSVRLML-OH), the negative-log EC50 (pEC50) was 7.05 on SITAC-18 d2; 6.80 on Syntrophin 1 alpha d1; 7.33 on RIM2 d1; 6.92 at INADL d3; 7.74 on PAR3 d3; 7.00 at PAR3L d3. The pEC50 was 6.74 on Mint 1 (d1, d2) and 7.05 on LIM Mystique d1.

As usually defined, the pEC50 is −log10 of the EC50, conventionally taken in molar units. A higher pEC50 goes with a small EC50.
